ChEMBL document CHEMBL1201862, “PubChem BioAssay data set” (2004)
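Step 1: Grow cells in 96-well plates. Step 2: Expose to compound for 48 hours at 5 concentrations. Step 3: Interpolate endpoints linearly; if unreached, use highest concentration. Abbreviation: GI50, concentration required for 50% inhibition of growth.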 Activity calls are given as the source filed them. Rule as the data show it: active = GI50 up to about 1.1 µM and inactive = higher.

How the values were obtained:
Assay in all cases: inhibition of tumour cell growth, NCI panel, 48 h
DLD-1 = system: DLD-1
U-251 = system: U-251
NCI-H522 = system: NCI-H522
NCI-H460 = system: NCI-H460
K562 = system: K562
OVCAR-5 = system: OVCAR-5
TK-10 = system: TK-10
SNB-75 = system: SNB-75
SK-MEL-2 = system: SK-MEL-2
UACC-62 = system: UACC-62
Malme-3M = system: Malme-3M
DMS-114 = system: DMS-114
SW-620 = system: SW-620
A498 = system: A498
SNB-78 = system: SNB-78
HT-29 = system: HT-29
M14 = system: M14
IGROV-1 = system: IGROV-1
M19-MEL = system: M19-MEL
CCRF-CEM = system: CCRF-CEM
OVCAR-8 = system: OVCAR-8
CAKI-1 = system: CAKI-1
SK-MEL-28 = system: SK-MEL-28
OVCAR-3 = system: OVCAR-3
UO-31 = system: UO-31
OVCAR-4 = system: OVCAR-4
786-0 = system: 786-0
SK-MEL-5 = system: SK-MEL-5
A549 = system: A549
KM-20L2 = system: KM-20L2
ACHN = system: ACHN
SN12C = system: SN12C
LXFL 529 = system: LXFL 529
SF-268 = system: SF-268
HCC 2998 = system: HCC 2998
EKVX = system: EKVX
KM12 = system: KM12
NCI-H23 = system: NCI-H23
UACC-257 = system: UACC-257
XF498 = system: XF498
MOLT-4 = system: MOLT-4
HOP-62 = system: HOP-62
SK-OV-3 = system: SK-OV-3
SF-295 = system: SF-295
RPMI-8226 = system: RPMI-8226
COLO 205 = system: COLO 205
LOX IMVI = system: LOX IMVI
HOP-18 = system: HOP-18
SNB-19 = system: SNB-19
HCT-116 = system: HCT-116
NCI-H226 = system: NCI-H226
HL-60 = system: HL-60
HCT-15 = system: HCT-15
RXF 393 = system: RXF 393
HOP-92 = system: HOP-92
SF-539 = system: SF-539
SR = system: SR
DMS-273 = system: DMS-273

COc1cc2cccc(/N=C\c3cccc(OC)c3OC(C)C)c2cc1OC
GI50 (DLD-1): 25.6 µM (inactive)
GI50 (U-251): 19.7 µM (inactive)
GI50 (NCI-H522): 17.9 µM (inactive)
GI50 (NCI-H460): 33.9 µM (inactive)
GI50 (K562): 15.6 µM (inactive)
GI50 (OVCAR-5): > 100 µM (inactive)
GI50 (TK-10): 25.6 µM (inactive)
GI50 (SNB-75): 21.7 µM (inactive)
GI50 (SK-MEL-2): 18 µM (inactive)
GI50 (UACC-62): 19.6 µM (inactive)
GI50 (Malme-3M): 22.3 µM (inactive)
GI50 (DMS-114): 17 µM (inactive)
GI50 (SW-620): 21 µM (inactive)
GI50 (A498): 56.9 µM (inactive)
GI50 (SNB-78): 44.7 µM (inactive)
GI50 (HT-29): 23.2 µM (inactive)
GI50 (M14): 17.9 µM (inactive)
GI50 (IGROV-1): 24 µM (inactive)
GI50 (M19-MEL): 21.3 µM (inactive)
GI50 (CCRF-CEM): 21.2 µM (inactive)
GI50 (OVCAR-8): 21.5 µM (inactive)
GI50 (CAKI-1): 24 µM (inactive)
GI50 (SK-MEL-28): 24.3 µM (inactive)
GI50 (OVCAR-3): 19.4 µM (inactive)
GI50 (UO-31): 30.1 µM (inactive)
GI50 (OVCAR-4): 18.7 µM (inactive)
GI50 (786-0): 18.5 µM (inactive)
GI50 (SK-MEL-5): 24.8 µM (inactive)
GI50 (A549): 29.7 µM (inactive)
GI50 (KM-20L2): 51.8 µM (inactive)
GI50 (ACHN): 36.6 µM (inactive)
GI50 (SN12C): 40.1 µM (inactive)
GI50 (LXFL 529): 14.7 µM (inactive)
GI50 (SF-268): 24.4 µM (inactive)
GI50 (HCC 2998): 35.9 µM (inactive)
GI50 (EKVX): 52 µM (inactive)
GI50 (KM12): 19 µM (inactive)
GI50 (NCI-H23): 23.4 µM (inactive)
GI50 (UACC-257): 20.8 µM (inactive)
GI50 (XF498): 26.8 µM (inactive)
GI50 (MOLT-4): 19.1 µM (inactive)
GI50 (HOP-62): 26.5 µM (inactive)
GI50 (SK-OV-3): 25.2 µM (inactive)
GI50 (SF-295): 19 µM (inactive)
GI50 (RPMI-8226): 13.2 µM (inactive)
GI50 (COLO 205): 36.2 µM (inactive)

O=C1C(c2ccccc2)=[N+]([O-])c2cc([N+](=O)[O-])ccc21
GI50 (DLD-1): 21.6 µM (inactive)
GI50 (U-251): 27.7 µM (inactive)
GI50 (NCI-H522): 15.3 µM (inactive)
GI50 (NCI-H460): 24.7 µM (inactive)
GI50 (K562): 22.8 µM (inactive)
GI50 (OVCAR-5): 69.8 µM (inactive)
GI50 (LOX IMVI): 14.3 µM (inactive)
GI50 (HOP-18): 88.1 µM (inactive)
GI50 (TK-10): 20.1 µM (inactive)
GI50 (SNB-19): 57 µM (inactive)
GI50 (HCT-116): 23.8 µM (inactive)
GI50 (SNB-75): 41.9 µM (inactive)
GI50 (SK-MEL-2): > 100 µM (inactive)
GI50 (UACC-62): 13.1 µM (inactive)
GI50 (Malme-3M): 20.6 µM (inactive)
GI50 (DMS-114): 14.3 µM (inactive)
GI50 (SW-620): 60.3 µM (inactive)
GI50 (A498): 27.6 µM (inactive)
GI50 (HT-29): 21.9 µM (inactive)
GI50 (M14): > 10 µM (inactive)
GI50 (IGROV-1): 22.4 µM (inactive)
GI50 (M19-MEL): 17.7 µM (inactive)
GI50 (CCRF-CEM): 8.93 µM (inactive)
GI50 (OVCAR-8): 16.4 µM (inactive)
GI50 (SK-MEL-28): 22.6 µM (inactive)
GI50 (OVCAR-3): 18.2 µM (inactive)
GI50 (NCI-H226): 73.3 µM (inactive)
GI50 (UO-31): 52.1 µM (inactive)
GI50 (HL-60): 7.52 µM (inactive)
GI50 (786-0): 26.3 µM (inactive)
GI50 (SK-MEL-5): 19.3 µM (inactive)
GI50 (A549): 32 µM (inactive)
GI50 (HCT-15): 21.4 µM
GI50 (KM-20L2): 23.5 µM (inactive)
GI50 (ACHN): 24.9 µM (inactive)
GI50 (SN12C): 25.6 µM (inactive)
GI50 (SF-268): 19.7 µM (inactive)
GI50 (HCC 2998): 27.5 µM (inactive)
GI50 (EKVX): 17.4 µM (inactive)
GI50 (KM12): 20.5 µM (inactive)
GI50 (NCI-H23): 43.6 µM (inactive)
GI50 (RXF 393): 15.9 µM (inactive)
GI50 (UACC-257): 18.5 µM (inactive)
GI50 (XF498): 24 µM (inactive)
GI50 (MOLT-4): 18.7 µM (inactive)
GI50 (HOP-62): > 100 µM (inactive)
GI50 (SK-OV-3): > 100 µM (inactive)
GI50 (HOP-92): 30.5 µM (inactive)
GI50 (SF-295): 48.2 µM (inactive)
GI50 (RPMI-8226): 22.8 µM (inactive)
GI50 (SF-539): 25.5 µM (inactive)
GI50 (COLO 205): 21.5 µM (inactive)

Cc1noc2c1C(=O)CCC2
GI50 (DLD-1): > 100 µM (inactive)
GI50 (NCI-H522): > 100 µM (inactive)
GI50 (K562): > 100 µM (inactive)
GI50 (OVCAR-5): > 100 µM (inactive)
GI50 (LOX IMVI): > 100 µM (inactive)
GI50 (HOP-18): > 100 µM (inactive)
GI50 (TK-10): > 100 µM (inactive)
GI50 (HCT-116): > 100 µM (inactive)
GI50 (SNB-75): > 100 µM (inactive)
GI50 (SK-MEL-2): > 100 µM (inactive)
GI50 (UACC-62): > 100 µM (inactive)
GI50 (Malme-3M): > 100 µM (inactive)
GI50 (SR): > 100 µM (inactive)
GI50 (DMS-114): > 100 µM (inactive)
GI50 (SW-620): > 100 µM (inactive)
GI50 (SNB-78): > 100 µM (inactive)
GI50 (HT-29): > 100 µM (inactive)
GI50 (M14): > 100 µM (inactive)
GI50 (M19-MEL): > 100 µM (inactive)
GI50 (CCRF-CEM): > 100 µM (inactive)
GI50 (OVCAR-8): > 100 µM (inactive)
GI50 (CAKI-1): > 100 µM (inactive)
GI50 (SK-MEL-28): > 100 µM (inactive)
GI50 (OVCAR-3): > 100 µM (inactive)
GI50 (NCI-H226): > 100 µM (inactive)
GI50 (UO-31): > 100 µM (inactive)
GI50 (OVCAR-4): > 100 µM (inactive)
GI50 (HL-60): > 100 µM (inactive)
GI50 (786-0): > 100 µM (inactive)
GI50 (KM-20L2): > 100 µM (inactive)
GI50 (ACHN): > 100 µM (inactive)
GI50 (SN12C): > 100 µM (inactive)
GI50 (LXFL 529): > 100 µM (inactive)
GI50 (SF-268): > 100 µM (inactive)
GI50 (EKVX): > 100 µM (inactive)
GI50 (RXF 393): > 100 µM (inactive)
GI50 (UACC-257): > 100 µM (inactive)
GI50 (XF498): > 100 µM (inactive)
GI50 (MOLT-4): > 100 µM (inactive)
GI50 (SK-OV-3): > 100 µM (inactive)
GI50 (HOP-92): > 100 µM (inactive)
GI50 (RPMI-8226): > 100 µM (inactive)
GI50 (SF-539): > 100 µM (inactive)
GI50 (COLO 205): > 100 µM (inactive)

COC(=O)C(=NNc1ccccc1[N+](=O)[O-])C(=O)OC
GI50 (U-251): > 100 µM (inactive)
GI50 (NCI-H522): > 100 µM (inactive)
GI50 (NCI-H460): > 100 µM (inactive)
GI50 (K562): > 100 µM (inactive)
GI50 (OVCAR-5): > 100 µM (inactive)
GI50 (LOX IMVI): > 100 µM (inactive)
GI50 (HOP-18): > 100 µM (inactive)
GI50 (TK-10): > 100 µM (inactive)
GI50 (SNB-19): > 100 µM (inactive)
GI50 (HCT-116): > 100 µM (inactive)
GI50 (SK-MEL-2): > 100 µM (inactive)
GI50 (Malme-3M): > 100 µM (inactive)
GI50 (SR): > 100 µM (inactive)
GI50 (SW-620): > 100 µM (inactive)
GI50 (A498): > 100 µM (inactive)
GI50 (HT-29): > 100 µM (inactive)
GI50 (IGROV-1): > 100 µM (inactive)
GI50 (M19-MEL): > 100 µM (inactive)
GI50 (CCRF-CEM): > 100 µM (inactive)
GI50 (OVCAR-8): > 100 µM (inactive)
GI50 (CAKI-1): > 100 µM (inactive)
GI50 (SK-MEL-28): > 100 µM (inactive)
GI50 (NCI-H226): > 100 µM (inactive)
GI50 (OVCAR-4): 88.1 µM (inactive)
GI50 (HL-60): > 100 µM (inactive)
GI50 (786-0): > 100 µM (inactive)
GI50 (A549): > 100 µM (inactive)
GI50 (KM-20L2): > 100 µM (inactive)
GI50 (ACHN): > 100 µM (inactive)
GI50 (SN12C): > 100 µM (inactive)
GI50 (LXFL 529): > 100 µM (inactive)
GI50 (SF-268): > 100 µM (inactive)
GI50 (HCC 2998): > 100 µM (inactive)
GI50 (EKVX): > 100 µM (inactive)
GI50 (KM12): > 100 µM (inactive)
GI50 (DMS-273): > 100 µM (inactive)
GI50 (NCI-H23): > 100 µM (inactive)
GI50 (RXF 393): > 100 µM (inactive)
GI50 (UACC-257): > 100 µM (inactive)
GI50 (XF498): 41.2 µM (inactive)
GI50 (MOLT-4): > 100 µM (inactive)
GI50 (HOP-62): > 100 µM (inactive)
GI50 (SK-OV-3): > 100 µM (inactive)
GI50 (HOP-92): 24.1 µM (inactive)
GI50 (SF-295): > 100 µM (inactive)
GI50 (SF-539): > 100 µM (inactive)
GI50 (COLO 205): > 100 µM (inactive)
